Here are results for 4 compounds from ChEMBL document CHEMBL3751683, “Synthesis, colon-targeted studies and pharmacological evaluation of an anti-ulcerative colitis drug 4-Aminosalicylic acid-β-O-glucoside” (Eur J Med Chem, 2016).

A short description of data set [1]: Aqueous solubility of the compound. Conditions: buffer. Format: physicochemical.
The test system of data set [2] is Rattus norvegicus. The data set can be described thus: Antiulcerative colitis activity in TNBS-induced Sprague-Dawley rat colitis model assessed as decrease in colon/body weight ratio drug administered once daily for 6 consecutive days measured 24 hrs after last drug challenge. Format: functional, organism-based.
In data set [3] the test system is Rattus norvegicus. The data set can be described thus: Antiulcerative colitis activity in TNBS-induced Sprague-Dawley rat colitis model at 385 mg/kg, qd for 6 consecutive days measured after 12 days. Format: functional, organism-based.
Data set [4] is described as follows: Stability of compound in isotonic phosphate buffer at pH 1.2 after 12 hrs by HPLC analysis. It is filed as physicochemical. Conditions: pH 1.2, 12 h.
The subject of data set [5] is Rattus norvegicus. Briefly: Antiulcerative colitis activity in TNBS-induced Sprague-Dawley rat colitis model assessed as decrease in severity of inflammation at 385 to 128 mg/kg qd for 6 consecutive days measured on 7th day. Format: functional, organism-based.
Data set [6] has as its system Rattus norvegicus. The data set can be described thus: Antiulcerative colitis activity in TNBS-induced Sprague-Dawley rat colitis model assessed as myeloperoxidase activity at 385 mg/kg, qd for 6 consecutive days by spectrophotometry (reference value: 1.44 +/- 0.041 U/g). It is filed as functional.
Data set [7] has as its system Rattus norvegicus. Briefly: Antiulcerative colitis activity in TNBS-induced Sprague-Dawley rat colitis model assessed as normal morphology of colon at 385 mg/kg qd for 6 consecutive days by hematoxylin and eosin staining based light microscopic analysis. Format: functional, organism-based.
For data set [8], the system named is Rattus norvegicus. Briefly: Antiulcerative colitis activity in TNBS-induced Sprague-Dawley rat colitis model assessed as myeloperoxidase activity at 255 mg/kg, qd for 6 consecutive days by spectrophotometry (reference value: 1.44 +/- 0.041 U/g). It is filed as functional.
Data set [9] in a line: Partition coefficient, log P of the compound at pH 7.4 by shake flask method. Format: physicochemical. Conditions: octanol/water.
Data set [10] concerns Rattus norvegicus. The data set can be described thus: Antiulcerative colitis activity in TNBS-induced Sprague-Dawley rat colitis model assessed as normal morphology of colon at 255 mg/kg qd for 6 consecutive days by hematoxylin and eosin staining based light microscopic analysis. Format: functional, organism-based.
In data set [11] the test system is Rattus norvegicus. The data set can be described thus: Antiulcerative colitis activity in TNBS-induced Sprague-Dawley rat colitis model assessed as effect on TNBS-induced mucosal abscess at 128 mg/kg qd for 6 consecutive days by hematoxylin and eosin staining based light microscopic analysis. It is filed as functional, organism-based.
Data set [12] in a line: Stability of compound in isotonic phosphate buffer at pH 7.4 after 12 hrs by HPLC analysis. It is filed as physicochemical. To be noted: pH 7.4, 12 h.
The subject of data set [13] is Rattus norvegicus. Briefly: Antiulcerative colitis activity in TNBS-induced Sprague-Dawley rat colitis model drug administered for once daily for 6 consecutive days. It is filed as functional, organism-based.
Data set [14] concerns Rattus norvegicus. Briefly: Antiulcerative colitis activity in TNBS-induced Sprague-Dawley rat colitis model assessed as decrease in macroscopic injury ratio drug administered once daily for 6 consecutive days measured 24 hrs after last drug challenge. Format: functional, organism-based.
Data set [15] in a line: Stability of compound in isotonic phosphate buffer at pH 6.8 after 12 hrs by HPLC analysis. Format: physicochemical. To be noted: pH 6.8, 12 h.
Data set [16] concerns Stomach. The data set can be described thus: Drug level in Sprague-Dawley rat stomach homogenate treated with sodium 4-amino-2-((2S,3R,4S,5S,6R)-3,4,5-trihydroxy-6-(hydroxymethyl)tetrahydro-2H- pyran-2-yloxy)benzoate at pH 4.5 by HPLC analysis. Format: ADME, tissue-based. Conditions: in vivo.
For data set [17], the system named is Colon. The data set can be described thus: Drug level in colitis Sprague-Dawley rat model colon treated with sodium 4-amino-2-((2S,3R,4S,5S,6R)-3,4,5-trihydroxy-6-(hydroxymethyl)tetrahydro-2H- pyran-2-yloxy)benzoate at pH 7.4 after 12 hrs by HPLC analysis. To be noted: in vivo, pH 7.4, 12 h. Format: ADME, tissue-based.
Data set [18] has as its system Colon. Briefly: Drug level in Sprague-Dawley rat colon treated with sodium 4-amino-2-((2S,3R,4S,5S,6R)-3,4,5-trihydroxy-6-(hydroxymethyl)tetrahydro-2H- pyran-2-yloxy)benzoate at pH 7.4 after 12 hrs by HPLC analysis. It is filed as ADME, tissue-based. Conditions: in vivo, pH 7.4, 12 h.
Data set [19] relates to Rattus norvegicus. Briefly: Antiulcerative colitis activity in TNBS-induced Sprague-Dawley rat colitis model assessed as myeloperoxidase activity at 115 mg/kg, qd for 6 consecutive days by spectrophotometry (reference value: 1.44 +/- 0.041 U/g). It is filed as functional.
The test system of data set [20] is Rattus norvegicus. The data set can be described thus: Antiulcerative colitis activity in TNBS-induced Sprague-Dawley rat colitis model assessed as decrease in severity of inflammation at 115 mg/kg qd for 6 consecutive days measured on 7th day. Format: functional, organism-based.
In data set [21] the test system is Stomach. Briefly: Drug level in colitis Sprague-Dawley rat model stomach homogenate treated with sodium 4-amino-2-((2S,3R,4S,5S,6R)-3,4,5-trihydroxy-6-(hydroxymethyl)tetrahydro-2H- pyran-2-yloxy)benzoate at pH 4.5 by HPLC analysis. Format: ADME, tissue-based. Conditions: in vivo.
Data set [22] is described as follows: Drug level in colitis Sprague-Dawley rat model cecum treated with sodium 4-amino-2-((2S,3R,4S,5S,6R)-3,4,5-trihydroxy-6-(hydroxymethyl)tetrahydro-2H- pyran-2-yloxy)benzoate at pH 7.4 after 12 hrs by HPLC analysis. It is filed as ADME, tissue-based, Caecum. Conditions: in vivo, pH 7.4, 12 h.
Data set [23] deals with Rattus norvegicus. Briefly: Antiulcerative colitis activity in TNBS-induced Sprague-Dawley rat colitis model assessed as effect on TNBS-induced inflammatory infiltrate at 115 mg/kg qd for 6 consecutive days by hematoxylin and eosin staining based light microscopic analysis. Format: functional, organism-based.
Data set [24] has as its system Small intestine. Briefly: Drug level in Sprague-Dawley rat small intestine homogenate treated with sodium 4-amino-2-((2S,3R,4S,5S,6R)-3,4,5-trihydroxy-6-(hydroxymethyl)tetrahydro-2H- pyran-2-yloxy)benzoate at pH 6.8 by HPLC analysis. Format: ADME, tissue-based. Conditions: in vivo.
Data set [25] can be described thus: Drug level in Sprague-Dawley rat cecum treated with sodium 4-amino-2-((2S,3R,4S,5S,6R)-3,4,5-trihydroxy-6-(hydroxymethyl)tetrahydro-2H- pyran-2-yloxy)benzoate at pH 7.4 after 12 hrs by HPLC analysis. Format: ADME, tissue-based, Caecum. To be noted: in vivo, pH 7.4, 12 h.
Data set [26] has as its system Rattus norvegicus. Briefly: Antiulcerative colitis activity in TNBS-induced Sprague-Dawley rat colitis model assessed as effect on TNBS-induced mucosal abscess at 115 mg/kg qd for 6 consecutive days by hematoxylin and eosin staining based light microscopic analysis. It is filed as functional, organism-based.
In data set [27] the test system is Small intestine. The data set can be described thus: Drug level in colitis Sprague-Dawley rat model small intestine homogenate treated with sodium 4-amino-2-((2S,3R,4S,5S,6R)-3,4,5-trihydroxy-6-(hydroxymethyl)tetrahydro-2H- pyran-2-yloxy)benzoate at pH 6.8 by HPLC analysis. To be noted: in vivo. It is filed as ADME, tissue-based.
Data set [28] has as its system Rattus norvegicus. Briefly: Antiulcerative colitis activity in TNBS-induced Sprague-Dawley rat colitis model assessed as decrease in severity of inflammation at 300 mg/kg qd for 6 consecutive days measured on 7th day. Format: functional, organism-based.
Data set [29] has as its system Rattus norvegicus. Briefly: Antiulcerative colitis activity in TNBS-induced Sprague-Dawley rat colitis model assessed as myeloperoxidase activity at 300 mg/kg, qd for 6 consecutive days by spectrophotometry (reference value: 1.44 +/- 0.041 U/g). Format: functional.

Values after ≈ are worked out from the molar mass of the structure shown. Active and inactive are the calls of the source. The rule behind the calls is not given here.

The solubility is the concentration that dissolves in the medium under given conditions. The low end stands for little dissolved substance, the high end for much dissolved substance. A word on the logD: it is the decadic logarithm of the distribution of all forms, ionised or not, between an organic phase and buffer at a given pH. A higher logD goes with a more lipophilic compound. `Nc1ccc(C(=O)[O-])c(O[C@@H]2O[C@H](CO)[C@@H](O)[C@H](O)[C@H]2O)c1.[Na+]` came in with a solubility in data set [1] of 635 mg/mL. In addition, the inhibition result in the data set on Rattus norvegicus [2] and with Rattus norvegicus [14] was “Dose-dependent effect” throughout. Further, the result in the data set on Rattus norvegicus [3], with Rattus norvegicus [7] and in the data set with Rattus norvegicus [10] was Active. Moreover, the Stability result in data set [4], in [12] and in data set [15] was “Stable” each time. In addition, the inhibition entry in the data set on Rattus norvegicus [5] is “Active”. In addition, the Activity is 0.4 U/g in the data set on Rattus norvegicus [6], 0.51 U/g in the data set on Rattus norvegicus [8] and “Dose-dependent effect” in the data set with Rattus norvegicus [13]. The compound further yielded a pH-dependent lipophilicity (logD) in [9] of -0.44. Also, the result in the data set with Rattus norvegicus [11] was inactive.
With `Nc1ccc(C(=O)O)c(O)c1` [AMINOSALICYLIC ACID], the Drug metabolism entry (in the data set on Stomach [16]; with Colon [17]; in the data set with Colon [18]; in the data set on Stomach [21]; in data set [22]; in the data set on Small intestine [24]) was “metabolite_detected” in each case. For the same compound, the Drug metabolism result (in data set [25]; with Small intestine [27]) was “metabolite_detected” each time. In [1], the solubility is 1.43 mg/mL (≈ 9.34 mM). Moreover, in the data set on Rattus norvegicus [19], the Activity turned out to be 0.82 U/g. In addition, in the data set with Rattus norvegicus [20], the inhibition entry was “Active”. In data set [9], the log distribution coefficient (logD) is 0.901. The outcome in the data set on Rattus norvegicus [23] and in the data set on Rattus norvegicus [26] was inactive.
On to `Nc1ccc(O)c(C(=O)O)c1`, for which the inhibition entry in the data set with Rattus norvegicus [20] was “Active”. Besides, the outcome in the data set on Rattus norvegicus [23] and with Rattus norvegicus [26] was inactive.
As for `O=C(O)c1cc(/N=N/c2ccc(S(=O)(=O)Nc3ccccn3)cc2)ccc1O` [SULFASALAZINE], the inhibition result in the data set with Rattus norvegicus [28] was “Active”. Further, the Activity in the data set with Rattus norvegicus [29] is on record as 0.58 U/g.
